Values quoted from earlier work in patent US20220024925A1, “Deuterium-Substituted 7-Substituted-2-(Benzylamino)-6-Ozopurine Compounds and Uses Thereof” (Acurx Pharmaceuticals LLC, priority 2020, published 2022).

Tests used:
C. diff = conditions: stated in words only; see Wright et al., U.S. Pat. No. 8,796,292
[1] = test system: other, intestinal Gram-positive anaerobes; conditions: stated in words only; see Wright et al., U.S. Pat. No. 8,796,292

In the case of O=c1[nH]c(NCc2ccc(Cl)c(Cl)c2)nc2ncn(CCN3CCOCC3)c12 [Compound I-1, 2-((3,4-dichlorobenzyl)amino)-7-(2-morpholinoethyl)-1,7-dihydro-6H-purin-6-one], the “activity against the growth of the intestinal anaerobe C. diff” value (C. diff) is given as “potent activity” and the “activity against other, intestinal Gram-positive anaerobes” value [1] is given as “weak activity”.
